For orientation: IC50 means the midpoint of a concentration-inhibition curve.

Substitutions are numbered along the chain they refer to. Where only a bound is given, the exact number is not on record here.

The values that follow come from patent publication US12448394B2, “Heterocyclic pyrazole derivatives as type III receptor tyrosine kinase inhibitors” (DEVELOPMENT CENTER FOR BIOTECHNOLOGY, priority 2019, dated 2025).

One assay deals with T1, FLT3 kinase (Homo sapiens, UniProt P36888).
T1 construct: purchased SignalChem
T1 sequence (P36888 27-993): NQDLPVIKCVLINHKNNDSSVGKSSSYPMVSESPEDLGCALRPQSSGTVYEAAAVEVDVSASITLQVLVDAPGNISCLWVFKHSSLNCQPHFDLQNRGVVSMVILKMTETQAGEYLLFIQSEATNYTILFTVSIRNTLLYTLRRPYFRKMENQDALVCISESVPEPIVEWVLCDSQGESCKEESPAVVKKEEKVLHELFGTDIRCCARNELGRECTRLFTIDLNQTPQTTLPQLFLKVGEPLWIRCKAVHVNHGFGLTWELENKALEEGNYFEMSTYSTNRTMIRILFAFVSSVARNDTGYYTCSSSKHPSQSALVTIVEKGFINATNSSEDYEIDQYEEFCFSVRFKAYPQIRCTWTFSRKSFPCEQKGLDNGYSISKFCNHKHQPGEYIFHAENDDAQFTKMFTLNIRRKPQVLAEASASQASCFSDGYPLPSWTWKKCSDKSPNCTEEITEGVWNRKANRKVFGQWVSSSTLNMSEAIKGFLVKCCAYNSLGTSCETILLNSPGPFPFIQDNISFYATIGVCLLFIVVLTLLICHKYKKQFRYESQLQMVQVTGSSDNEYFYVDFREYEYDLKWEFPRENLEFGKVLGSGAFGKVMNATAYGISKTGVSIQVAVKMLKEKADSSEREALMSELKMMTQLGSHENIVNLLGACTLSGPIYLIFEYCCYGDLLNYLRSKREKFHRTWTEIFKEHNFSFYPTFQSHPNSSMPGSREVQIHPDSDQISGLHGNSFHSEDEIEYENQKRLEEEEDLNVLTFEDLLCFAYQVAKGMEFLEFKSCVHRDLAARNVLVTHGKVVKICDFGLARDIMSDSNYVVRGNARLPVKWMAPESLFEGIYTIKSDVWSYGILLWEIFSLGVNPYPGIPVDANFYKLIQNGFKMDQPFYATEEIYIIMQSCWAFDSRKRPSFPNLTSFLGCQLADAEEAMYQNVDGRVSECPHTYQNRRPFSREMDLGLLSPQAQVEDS
Put plainly: FLT3 kinase assay (AlphaScreen). Format: biochemical. The conditions noted are these: read-out: Ranking of IC50 values, FLT3. Here is the method:
(§1) Inhibition of FLT3 kinase activity by a test compound disclosed herein was estimated by AlphaScreen (PerkinElmer, Akron, Ohio, USA). Standard assay conditions were 1.5 ng of recombinant FLT3 kinase (SignalChem, Richmond, BC, Canada) with 6 ng Biotin-conjugated Poly-(Glu 4: Tyr 1) (Cisbio, Bedford, MA, USA) in the assay buffer (10 μM ATP, 10 mM MOPs, pH7.0, 0.21 mM EDTA, 0.5% glycerol, 1 mg/mL BSA, 0.01% 2-mercaptoethanol, 0.001% Brij35, 10 mM MgCl2) in a final volume of 25 μL. Reactions were incubated at 30° C. for 30 min and stopped by adding 5 μL of 50 mM EDTA. Analysis of resulting product using an AlphaScreen kit and counted with Enspire Alpha (PerkinElmer, Waltham, MA, USA). […] The IC50 values of inhibitors were determined after carrying out assays with each compound at serially diluted concentrations in duplication. The results were analyzed using linear regression software (GraphPad Prism 5; GraphPad Software Inc.)
A general note: Bead proximity is the source of the signal in Alpha formats.

A further assay concerns the target T2, FLT3-D835Y mutant kinase (Homo sapiens, UniProt P36888, D835Y).
T2 construct: purchased SignalChem
T2 sequence (P36888 27-993 D835Y): T1 sequence (P36888 27-993) with D809Y
Put plainly: FLT3-D835Y mutant kinase assay (AlphaScreen). Format: biochemical. The conditions noted are these: read-out: Ranking of IC50 values, FLT3-D835Y. The protocol: as §1, with “FLT3-D835Y mutant” for “FLT3”, “(PerkinElmer).” for “(PerkinElmer, Akron, Ohio, USA).”, “1” for “1.5”, “(SignalChem)” for “(SignalChem, Richmond, BC, Canada)”, “(Cisbio)” for “(Cisbio, Bedford, MA, USA)”, “(PerkinElmer).” for “(PerkinElmer, Waltham, MA, USA).”

In a further assay the target is T3, PDGFRα kinase (Homo sapiens, UniProt P16234).
T3 construct: purchased SignalChem
Put plainly: PDGFRα kinase assay (AlphaScreen). Format: biochemical. Conditions: read-out: Ranking of IC50 values, PDGFRα. Here is the method: Inhibition of PDGFRα kinase activity by a test compound disclosed herein was estimated by AlphaScreen (PerkinElmer). Standard assay conditions were 1.5 ng of recombinant PDGFRα kinase (SignalChem) with 6 ng Biotin-conjugated Poly-(Glu 4: Tyr 1) (Cisbio) in the assay buffer (10 μM ATP, 10 mM MOPs, pH 7.0, 0.21 mM EDTA, 0.5% glycerol, 1 mg/mL BSA, 0.01% 2-mercaptoethanol, 0.001% Brij35, 10 mM MgCl2) in a final volume of 25 μL. Reactions were incubated at 30° C. for 30 min and stopped by adding […] of 50 mM EDTA. Analysis of resulting product using an AlphaScreen kit and counted with Enspire Alpha (PerkinElmer). […] The IC50 values of inhibitors were determined after carrying out assays with each compound at serially diluted concentrations in duplication. The results were analyzed using linear regression software (GraphPad Prism 5; GraphPad Software Inc.)

In a further assay the target is T4, MET kinase (Homo sapiens, UniProt P08581).
T4 construct: purchased SignalChem
Put plainly: MET kinase assay (AlphaScreen, counter screen). The conditions noted are these: read-out: Ranking of IC50 values, MET. It is filed as biochemical. Here is the method: Because MET kinase belonged to Class VIII RTK family have one transmembrane a chain linked with one extracellular β chain which is different form Class III RTK family with 5 Immunoglobin-like extracellular domains. Standard assay conditions were 1 ng of recombinant MET kinase (SignalChem) with 3 ng Biotin-conjugated Poly-(Glu 4: Tyr 1) (Cisbio) in the assay buffer ([…], 10 mM MOPs, pH 7.0, 0.21 mM EDTA, 0.5% glycerol, 1 mg/mL BSA, 0.01% 2-mercaptoethanol, 0.001% Brij35, 10 mM MgCl2) in a final volume of 25 μL. Reactions were incubated at 30° C. for 45 min and stopped by adding 5 μL of 50 mM EDTA. Analysis of resulting product using an AlphaScreen kit and counted with Enspire Alpha (PerkinElmer). […] The IC50 values of inhibitors were determined after carrying out assays with each compound at serially diluted concentrations in duplication. The results were analyzed using linear regression software (GraphPad Prism 5; GraphPad Software Inc.)

For assay [1], the system named is experimental autoimmune encephalomyelitis (EAE). Conditions: mouse model for multiple sclerosis; cited from earlier work.

T4 sequence (P08581 25-1390): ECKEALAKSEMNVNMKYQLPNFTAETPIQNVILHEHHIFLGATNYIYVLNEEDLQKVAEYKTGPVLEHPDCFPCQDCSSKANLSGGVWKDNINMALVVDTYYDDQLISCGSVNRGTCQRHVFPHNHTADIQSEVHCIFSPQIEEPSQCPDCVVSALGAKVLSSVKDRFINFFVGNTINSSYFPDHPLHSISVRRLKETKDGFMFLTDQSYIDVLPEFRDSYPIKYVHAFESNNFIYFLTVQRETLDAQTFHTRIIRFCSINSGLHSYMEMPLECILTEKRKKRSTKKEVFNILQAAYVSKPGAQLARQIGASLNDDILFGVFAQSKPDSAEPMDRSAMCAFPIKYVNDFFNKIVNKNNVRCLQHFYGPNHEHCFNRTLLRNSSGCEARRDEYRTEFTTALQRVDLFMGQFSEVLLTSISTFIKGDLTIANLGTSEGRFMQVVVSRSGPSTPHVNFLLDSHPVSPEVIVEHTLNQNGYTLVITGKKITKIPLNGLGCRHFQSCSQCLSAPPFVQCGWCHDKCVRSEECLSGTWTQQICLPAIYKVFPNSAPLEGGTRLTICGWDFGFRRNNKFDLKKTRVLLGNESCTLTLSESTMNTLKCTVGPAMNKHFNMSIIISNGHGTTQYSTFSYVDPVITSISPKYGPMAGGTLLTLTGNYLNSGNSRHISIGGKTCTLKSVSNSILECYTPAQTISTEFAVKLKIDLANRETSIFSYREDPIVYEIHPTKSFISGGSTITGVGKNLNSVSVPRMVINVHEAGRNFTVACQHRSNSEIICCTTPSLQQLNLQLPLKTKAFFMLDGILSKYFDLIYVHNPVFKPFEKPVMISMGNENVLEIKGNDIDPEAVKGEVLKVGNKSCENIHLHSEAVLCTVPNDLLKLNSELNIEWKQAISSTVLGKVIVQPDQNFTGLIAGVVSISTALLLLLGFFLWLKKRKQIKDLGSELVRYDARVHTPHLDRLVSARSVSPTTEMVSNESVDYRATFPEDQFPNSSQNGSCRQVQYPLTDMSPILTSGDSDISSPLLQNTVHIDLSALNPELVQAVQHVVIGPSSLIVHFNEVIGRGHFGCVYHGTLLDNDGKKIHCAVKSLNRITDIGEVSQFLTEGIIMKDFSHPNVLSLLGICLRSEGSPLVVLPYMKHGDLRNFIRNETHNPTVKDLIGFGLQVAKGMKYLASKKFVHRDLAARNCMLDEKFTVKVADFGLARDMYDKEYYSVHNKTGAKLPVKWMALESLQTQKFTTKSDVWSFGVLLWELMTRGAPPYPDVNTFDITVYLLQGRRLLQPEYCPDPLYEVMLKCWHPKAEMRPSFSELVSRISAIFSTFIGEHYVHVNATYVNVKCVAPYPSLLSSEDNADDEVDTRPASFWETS
T3 sequence (P16234 24-1089): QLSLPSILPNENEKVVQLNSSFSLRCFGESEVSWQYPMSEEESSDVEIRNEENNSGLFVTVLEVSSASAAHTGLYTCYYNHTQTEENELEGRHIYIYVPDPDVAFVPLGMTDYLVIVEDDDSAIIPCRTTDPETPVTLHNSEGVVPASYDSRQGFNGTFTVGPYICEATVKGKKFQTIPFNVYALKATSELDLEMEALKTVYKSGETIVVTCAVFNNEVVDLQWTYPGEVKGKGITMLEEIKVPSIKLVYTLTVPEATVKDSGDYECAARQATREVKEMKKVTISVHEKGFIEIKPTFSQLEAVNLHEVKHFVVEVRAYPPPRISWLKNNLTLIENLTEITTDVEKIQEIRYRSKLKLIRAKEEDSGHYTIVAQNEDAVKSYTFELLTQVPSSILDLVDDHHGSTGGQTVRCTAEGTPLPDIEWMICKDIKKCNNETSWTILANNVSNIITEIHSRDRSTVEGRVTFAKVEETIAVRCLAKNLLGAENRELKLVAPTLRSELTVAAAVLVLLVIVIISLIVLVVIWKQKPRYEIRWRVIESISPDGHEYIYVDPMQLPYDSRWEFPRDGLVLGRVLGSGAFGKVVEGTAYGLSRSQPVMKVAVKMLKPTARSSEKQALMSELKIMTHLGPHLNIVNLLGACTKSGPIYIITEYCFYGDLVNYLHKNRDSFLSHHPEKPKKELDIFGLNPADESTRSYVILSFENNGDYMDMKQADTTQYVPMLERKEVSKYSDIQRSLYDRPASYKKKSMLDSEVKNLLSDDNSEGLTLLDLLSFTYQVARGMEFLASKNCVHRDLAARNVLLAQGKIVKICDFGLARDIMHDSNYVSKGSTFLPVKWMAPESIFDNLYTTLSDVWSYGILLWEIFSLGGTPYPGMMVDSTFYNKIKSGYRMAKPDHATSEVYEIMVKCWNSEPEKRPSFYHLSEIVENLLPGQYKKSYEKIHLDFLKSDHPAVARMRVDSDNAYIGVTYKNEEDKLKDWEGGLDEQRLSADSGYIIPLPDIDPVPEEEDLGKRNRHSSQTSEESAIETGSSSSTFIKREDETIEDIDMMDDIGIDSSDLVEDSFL

Consider `Brc1n[nH]c2cc(-c3n[nH]c4c3Cc3sc(-c5ccc(CN6CCOCC6)cc5)cc3-4)ccc12` [Compound 68, 4-(4-(3-(3-bromo-1H-indazol-6-yl)-1,4-dihydro-thieno[2′,3′:4,5]cyclopenta [1,2-c]pyrazol-6-yl)benzyl)morpholine], for which the IC50 at FLT3 kinase is 1 to 10 nM; on FLT3-D835Y mutant kinase it was 1 to 10 nM; at PDGFRα kinase it was 1 to 10 nM; at MET kinase it was greater than 1000 nM.
On to `C[C@]12O[C@H](C[C@]1(O)CO)n1c3ccccc3c3c4c(c5c6ccccc6n2c5c31)CNC4=O` [CEP-701], for which the “reducing myelin loss in EAE” value in assay [1] was “effective in reducing myelin loss”.
